Columns and labels:
velvetleaf = assay: Test B pre/postemergence velvetleaf; assay type: in vivo, Abutilon theophrasti
Method in brief: (§1)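 Herbicidal effect was estimated by eye on a ten-point control scale after plants spent twelve to sixteen days in a greenhouse following soil or foliar treatment. Foliar sprays targeted plants at one to four leaves; all doses were formulated in a non-phytotoxic solvent with surfactant.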

smallflower flatsedge = assay: Test B flood test smallflower flatsedge; assay type: in vivo, Cyperus difformis
Method in brief: (§2)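 Flood test on plants grown to the 2-leaf stage; treated plants kept in greenhouse twelve to sixteen days, then visually rated against controls on a 0 (no effect) to 10 (complete control) scale.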

soybean = assay: Test B pre/postemergence soybean; assay type: in vivo, Glycine max
Method in brief: as §1

bamyardgrass = assay: Test B flood test barnyardgrass; assay type: in vivo, Echinochloa crus-galli
Method in brief: as §2

rape = assay: Test B pre/postemergence rape; assay type: in vivo, Brassica napus
Method in brief: as §1

sugar beet = assay: Test B pre/postemergence sugar beet; assay type: in vivo, Beta vulgaris
Method in brief: as §1

pigweed = assay: Test B pre/postemergence pigweed; assay type: in vivo, Amaranthus retroflexus
Method in brief: as §1

rice = assay: Test B flood test rice; assay type: in vivo, Oryza sativa
Method in brief: as §2

purple nutsedge = assay: Test B pre/postemergence purple nutsedge; assay type: in vivo, Cyperus rotundus
Method in brief: as §1

corn = assay: Test B pre/postemergence corn; assay type: in vivo, Zea mays
Method in brief: as §1

surinam grass = assay: Test B pre/postemergence surinam grass; assay type: in vivo, Brachiaria decumbens
Method in brief: as §1

giant foxtail = assay: Test B pre/postemergence giant foxtail; assay type: in vivo, Setaria faberii
Method in brief: as §1

morningglory = assay: Test B pre/postemergence morningglory; assay type: in vivo, Ipomoea hederacea
Method in brief: as §1

blackgrass = assay: Test B pre/postemergence blackgrass; assay type: in vivo, Alopecurus myosuroides
Method in brief: as §1

bedstraw = assay: Test B pre/postemergence bedstraw; assay type: in vivo, Galium aparine
Method in brief: as §1

duck salad = assay: Test B flood test duck salad; assay type: in vivo, Heteranthera limosa
Method in brief: as §2

[1] = Postemergence, Rate 62 g/ha, scale 0 to 10, 0 is no effect, 10 is complete control
[2] = Postemergence, Rate 250 g/ha, scale 0 to 10, 0 no effect, 10 complete control
[3] = Preemergence, Rate 62 g/ha, scale 0 to 10 (0 no effect, 10 complete control)
[4] = Preemergence, Rate 125 g/ha, scale 0 to 10 (0 no effect, 10 complete control)
[5] = Preemergence, Rate 250 g/ha, scale of 0 to 10 where 0 is no effect and 10 is complete control
[6] = Preemergence, Rate 500 g/ha, scale 0 (no effect) to 10 (complete control)
[7] = Rate 125 g/ha, Postemergence, scale 0 to 10, 0 no effect, 10 complete control
[8] = Rate 500 g/ha, Postemergence, scale 0 to 10, 0 no effect, 10 complete control
[9] = Rate 125 g/ha, Postemergence section (flood test species), scale 0 to 10, 0 no effect, 10 complete control
[10] = Rate 500 g/ha, listed under Postemergence (flood test species), scale 0 to 10, 0 no effect, 10 complete control
[11] = flood test, listed under Postemergence, Rate 250 g/ha, scale 0 to 10, 0 no effect, 10 complete control

## Cc1ccccc1-n1c(=O)on(C(=O)N(c2cc(F)ccc2F)C(C)C)c1=O [Compound 68]
velvetleaf; [1]
  Velvetleaf plant response rating: 0
velvetleaf; [2]
  Velvetleaf plant response rating: 2
velvetleaf; [3]
  Velvetleaf plant response rating: 0
velvetleaf; [4]
  Plant response rating, Velvetleaf: 0
velvetleaf; [5]
  Plant response rating, Velvetleaf: 0
velvetleaf; [6]
  Velvetleaf plant response rating: 0
velvetleaf; [7]
  Velvetleaf plant response rating: 0
velvetleaf; [8]
  Velvetleaf plant response rating: 3
Smallflower flatsedge; [1]
  S. Flatsedge plant response rating: 0
Smallflower flatsedge; [9]
  S. Flatsedge plant response rating: 0
Smallflower flatsedge; [10]
  S. Flatsedge plant response rating: 0
Smallflower flatsedge; [11]
  S. Flatsedge plant response rating: 0
soybean; [1]
  Soybean plant response rating: 1
soybean; [2]
  Soybean plant response rating: 3
soybean; [3]
  Soybean plant response rating: 0
soybean; [4]
  Plant response rating, Soybean: 0
soybean; [5]
  Plant response rating, Soybean: 0
soybean; [6]
  Soybean plant response rating: 0
soybean; [7]
  Soybean plant response rating: 2
soybean; [8]
  Soybean plant response rating: 3
bamyardgrass; [1]
  Barnyardgrass plant response rating: 0
bamyardgrass; [9]
  Barnyardgrass plant response rating: 0
bamyardgrass; [10]
  Barnyardgrass plant response rating: 0
bamyardgrass; [11]
  Barnyardgrass plant response rating: 0
rape; [1]
  Rape plant response rating: 0
rape; [2]
  Rape plant response rating: 0
rape; [3]
  Rape plant response rating: 0
rape; [4]
  Plant response rating, Rape: 0
rape; [5]
  Plant response rating, Rape: 2
rape; [6]
  Rape plant response rating: 6
rape; [7]
  Rape plant response rating: 0
rape; [8]
  Rape plant response rating: 0
Sugar beet; [1]
  Sugarbeets plant response rating: 0
Sugar beet; [2]
  Sugarbeets plant response rating: 0
Sugar beet; [3]
  Sugarbeets plant response rating: 0
Sugar beet; [4]
  Plant response rating, Sugarbeets: 0
Sugar beet; [5]
  Plant response rating, Sugarbeets: 0
Sugar beet; [6]
  Sugarbeets plant response rating: 0
Sugar beet; [7]
  Sugarbeets plant response rating: 0
Sugar beet; [8]
  Sugarbeets plant response rating: 3
pigweed; [1]
  Redroot pigweed plant response rating: 0
pigweed; [2]
  Redroot pigweed plant response rating: 0
pigweed; [3]
  Redroot pigweed plant response rating: 0
pigweed; [4]
  Plant response rating, Redroot pigweed: 2
pigweed; [5]
  Plant response rating, Redroot pigweed: 7
pigweed; [6]
  Redroot pigweed plant response rating: 10
pigweed; [7]
  Redroot pigweed plant response rating: 0
pigweed; [8]
  Redroot pigweed plant response rating: 0
rice; [1]
  Rice plant response rating: 0
rice; [9]
  Rice plant response rating: 0
rice; [10]
  Rice plant response rating: 0
rice; [11]
  Rice plant response rating: 0
Purple nutsedge; [1]
  Nutsedge plant response rating: 0
Purple nutsedge; [2]
  Nutsedge plant response rating: 0
Purple nutsedge; [4]
  Plant response rating, Nutsedge: 0
Purple nutsedge; [5]
  Plant response rating, Nutsedge: 10
Purple nutsedge; [6]
  Nutsedge plant response rating: 10
Purple nutsedge; [7]
  Nutsedge plant response rating: 0
Purple nutsedge; [8]
  Nutsedge plant response rating: 0
corn; [1]
  Corn plant response rating: 0
corn; [2]
  Corn plant response rating: 0
corn; [3]
  Corn plant response rating: 0
corn; [4]
  Plant response rating, Corn: 0
corn; [5]
  Plant response rating, Corn: 0
corn; [6]
  Corn plant response rating: 0
corn; [7]
  Corn plant response rating: 0
corn; [8]
  Corn plant response rating: 0
Surinam grass; [1]
  B. signalgrass plant response rating: 0
Surinam grass; [2]
  B. signalgrass plant response rating: 0
Surinam grass; [3]
  B. signalgrass plant response rating: 0
Surinam grass; [4]
  Plant response rating, B. signalgrass: 3
Surinam grass; [5]
  Plant response rating, B. signalgrass: 4
Surinam grass; [6]
  B. signalgrass plant response rating: 8
Surinam grass; [7]
  B. signalgrass plant response rating: 0
Surinam grass; Rate 500 g/ha, Postemergence, scale of 0 to 10 where 0 is no effect and 10 is complete control
  B. signalgrass plant response rating: 0
Giant foxtail; [1]
  Giant foxtail plant response rating: 0
Giant foxtail; [2]
  Giant foxtail plant response rating: 0
Giant foxtail; [3]
  Giant foxtail plant response rating: 5
Giant foxtail; [4]
  Plant response rating, Giant foxtail: 9
Giant foxtail; [5]
  Plant response rating, Giant foxtail: 10
Giant foxtail; [6]
  Giant foxtail plant response rating: 10
Giant foxtail; [7]
  Giant foxtail plant response rating: 0
Giant foxtail; [8]
  Giant foxtail plant response rating: 0
morningglory; [1]
  Morningglory plant response rating: 2
morningglory; [2]
  Morningglory plant response rating: 2
morningglory; [3]
  Morningglory plant response rating: 0
morningglory; [4]
  Plant response rating, Morningglory: 0
morningglory; [5]
  Plant response rating, Morningglory: 0
morningglory; [6]
  Morningglory plant response rating: 0
morningglory; [7]
  Morningglory plant response rating: 2
morningglory; [8]
  Morningglory plant response rating: 3
blackgrass; [1]
  Blackgrass plant response rating: 0
blackgrass; [2]
  Blackgrass plant response rating: 2
blackgrass; [3]
  Blackgrass plant response rating: 0
blackgrass; [4]
  Plant response rating, Blackgrass: 2
blackgrass; [5]
  Plant response rating, Blackgrass: 2
blackgrass; [6]
  Blackgrass plant response rating: 4
blackgrass; [7]
  Blackgrass plant response rating: 0
blackgrass; [8]
  Blackgrass plant response rating: 2
bedstraw; [1]
  Bedstraw plant response rating: 4
bedstraw; [2]
  Bedstraw plant response rating: 7
bedstraw; [3]
  Bedstraw plant response rating: 0
bedstraw; [4]
  Plant response rating, Bedstraw: 0
bedstraw; [5]
  Plant response rating, Bedstraw: 4
bedstraw; [6]
  Bedstraw plant response rating: 4
bedstraw; [7]
  Bedstraw plant response rating: 7
Duck salad; [1]
  Ducksalad plant response rating: 0
Duck salad; [9]
  Ducksalad plant response rating: 0
Duck salad; [10]
  Ducksalad plant response rating: 0
Duck salad; [11]
  Ducksalad plant response rating: 0

Reference: patent publication US6737383B1, “Herbicidal oxadiazolidines” (priority 1999, dated 2004)
